Like-named read-outs stand apart in the source and are kept apart here.
What was measured:
S. aureus SA0077 = settings: for MIC values: Table S1: SA0077 Abf (passages on antibiotic-free media)
S. aureus SA0085 = settings: for MIC values: Table S1: SA0085 Abf (passages on antibiotic-free media)
[1] = system: S. aureus derivative strains; settings: daptomycin-selected derivative strains without WalK mutations (all except SA0422), susceptible
[2] = SA0077, selecting agent DAP, passage 5
[3] = SA0077, selecting agent DAP, passage 20
[4] = SA0077, selecting agent DAP, passage 40
[5] = SA0077, selecting agent VAN, passage 0
[6] = SA0077, selecting agent VAN, passage 5
[7] = SA0077, selecting agent VAN, passage 20
[8] = SA0077, selecting agent VAN, passage 40
[9] = SA0085, selecting agent DAP, passage 5
[10] = SA0085, selecting agent DAP, passage 40
[11] = SA0085, selecting agent VAN, passage 0
[12] = SA0085, selecting agent VAN, passage 5
[13] = SA0085, selecting agent VAN, passage 20
[14] = SA0085, selecting agent VAN, passage 40
[15] = SA0422, selecting agent DAP, passage 5
[16] = SA0422, selecting agent DAP, passage 20
[17] = SA0422, selecting agent DAP, passage 40
[18] = SA0422, selecting agent VAN, passage 0
[19] = SA0422, selecting agent VAN, passage 5
[20] = SA0422, selecting agent VAN, passage 20
[21] = SA0422, selecting agent VAN, passage 40
[22] = Table S1: RN4220 ∆ (strain with deletion in SACOL1927)
[23] = ATCC 29213, selecting agent DAP, passage 5
[24] = ATCC 29213, selecting agent DAP, passage 20
[25] = ATCC 29213, selecting agent DAP, passage 40
[26] = ATCC 29213, selecting agent VAN, passage 0
[27] = ATCC 29213, selecting agent VAN, passage 5
[28] = ATCC 29213, selecting agent VAN, passage 20
[29] = ATCC 29213, selecting agent VAN, passage 40
[30] = SA0736, selecting agent DAP, passage 5
[31] = SA0736, selecting agent DAP, passage 20
[32] = SA0736, selecting agent DAP, passage 40Y (yellow colonies)
[33] = SA0736, selecting agent VAN, passage 0
[34] = SA0736, selecting agent VAN, passage 5
[35] = SA0736, selecting agent VAN, passage 20
[36] = SA0736, selecting agent VAN, passage 40
[37] = Table S1: SA0736 DAP-W (40 passages on daptomycin, white colonies)
[38] = Table S1: SA0736 DAP-Y (40 passages on daptomycin, yellow colonies)
[39] = SA0085, selecting agent DAP, passage 20

## dalbavancin
S. aureus SA0077; [2]
  MIC: <0.03 µg/mL
S. aureus SA0077; [3]
  MIC: 0.125 µg/mL
S. aureus SA0077; [4]
  MIC: 0.125 µg/mL
S. aureus SA0077; [5]
  MIC: 0.03 µg/mL
S. aureus SA0077; [6]
  MIC: 0.25 µg/mL
S. aureus SA0077; [7]
  MIC: 1 µg/mL
S. aureus SA0077; [8]
  MIC: 2 µg/mL
S. aureus SA0077
  MIC values: 0.03 µg/mL
S. aureus SA0085; [9]
  MIC: <0.016 µg/mL
S. aureus SA0085; [10]
  MIC: 0.125 µg/mL
S. aureus SA0085; [11]
  MIC: <0.016 µg/mL
S. aureus SA0085; [12]
  MIC: 0.06 µg/mL
S. aureus SA0085; [13]
  MIC: 0.5 µg/mL
S. aureus SA0085; [14]
  MIC: 0.25 µg/mL
S. aureus SA0085
  MIC values: 0.03 µg/mL
[1]
  MIC: ≤ 0.125 µg/mL
S. aureus SA0422; [15]
  MIC: 0.06 µg/mL
S. aureus SA0422; [16]
  MIC: 0.25 µg/mL
S. aureus SA0422; [17]
  MIC: 0.25 µg/mL
S. aureus SA0422; [18]
  MIC: 0.03 µg/mL
S. aureus SA0422; [19]
  MIC: 0.125 µg/mL
S. aureus SA0422; [20]
  MIC: 0.5 µg/mL
S. aureus SA0422; [21]
  MIC: 1 µg/mL
S. aureus RN4220; Table S1: RN4220 WT
  MIC values: 0.03 µg/mL
S. aureus RN4220; [22]
  MIC values: 0.03 µg/mL
S. aureus ATCC 29213; [23]
  MIC: 0.03 µg/mL
S. aureus ATCC 29213; [24]
  MIC: 0.06 µg/mL
S. aureus ATCC 29213; [25]
  MIC: 0.125 µg/mL
S. aureus ATCC 29213; [26]
  MIC: <0.016 µg/mL
S. aureus ATCC 29213; [27]
  MIC: <0.016 µg/mL
S. aureus ATCC 29213; [28]
  MIC: <0.016 µg/mL
S. aureus ATCC 29213; [29]
  MIC: 2 µg/mL
S. aureus SA0736; [30]
  MIC: 0.03 µg/mL
S. aureus SA0736; [31]
  MIC: 0.25 µg/mL
S. aureus SA0736; [32]
  MIC: 0.5 µg/mL
S. aureus SA0736; [33]
  MIC: 0.03 µg/mL
S. aureus SA0736; [34]
  MIC: 0.125 µg/mL
S. aureus SA0736; [35]
  MIC: 1 µg/mL
S. aureus SA0736; [36]
  MIC: 1 µg/mL
S. aureus SA0736; [37]
  MIC values: 0.5 µg/mL
S. aureus SA0736; [38]
  MIC values: 0.5 µg/mL

## oritavancin
S. aureus SA0077; [2]
  MIC: 2 µg/mL
S. aureus SA0077; [3]
  MIC: 4 µg/mL
S. aureus SA0077; [4]
  MIC: 4 µg/mL
S. aureus SA0077; [5]
  MIC: <0.03 µg/mL
S. aureus SA0077; [6]
  MIC: 0.125 µg/mL
S. aureus SA0077; [7]
  MIC: 2 µg/mL
S. aureus SA0077; [8]
  MIC: 2 µg/mL
S. aureus SA0077
  MIC values: 0.06 µg/mL
S. aureus SA0085; [9]
  MIC: <0.03 µg/mL
S. aureus SA0085; [39]
  MIC: 0.06 µg/mL
S. aureus SA0085; [10]
  MIC: 1 µg/mL
S. aureus SA0085; [11]
  MIC: <0.03 µg/mL
S. aureus SA0085; [12]
  MIC: 0.06 µg/mL
S. aureus SA0085; [13]
  MIC: 2 µg/mL
S. aureus SA0085; [14]
  MIC: 1 µg/mL
S. aureus SA0085
  MIC values: < 0.03 µg/mL
S. aureus SA0422; [15]
  MIC: 0.125 µg/mL
S. aureus SA0422; [16]
  MIC: 0.5 µg/mL
S. aureus SA0422; [17]
  MIC: 0.5 µg/mL
S. aureus SA0422; [18]
  MIC: <0.03 µg/mL
S. aureus SA0422; [19]
  MIC: 0.06 µg/mL
S. aureus SA0422; [20]
  MIC: 0.25 µg/mL
S. aureus SA0422; [21]
  MIC: 0.5 µg/mL
S. aureus RN4220; Table S1: RN4220 WT
  MIC values: 0.016 µg/mL
S. aureus RN4220; [22]
  MIC values: 0.016 µg/mL
S. aureus ATCC 29213; [23]
  MIC: 0.06 µg/mL
S. aureus ATCC 29213; [24]
  MIC: 0.125 µg/mL
S. aureus ATCC 29213; [25]
  MIC: 2 µg/mL
S. aureus ATCC 29213; [26]
  MIC: 0.06 µg/mL
S. aureus ATCC 29213; [27]
  MIC: 0.06 µg/mL
S. aureus ATCC 29213; [28]
  MIC: 0.06 µg/mL
S. aureus ATCC 29213; [29]
  MIC: 4 µg/mL
S. aureus SA0736; [30]
  MIC: <0.03 µg/mL
S. aureus SA0736; [31]
  MIC: 2 µg/mL
S. aureus SA0736; [32]
  MIC: 4 µg/mL
S. aureus SA0736; [33]
  MIC: <0.03 µg/mL
S. aureus SA0736; [34]
  MIC: 0.25 µg/mL
S. aureus SA0736; [35]
  MIC: 2 µg/mL
S. aureus SA0736; [36]
  MIC: 2 µg/mL
S. aureus SA0736; [37]
  MIC values: 4 µg/mL
S. aureus SA0736; [38]
  MIC values: 4 µg/mL

## teicoplanin [TEC]
S. aureus SA0077; [3]
  MIC: 0.25 µg/mL
S. aureus SA0077; [4]
  MIC: 0.25 µg/mL
S. aureus SA0077; [5]
  MIC: 0.25 µg/mL
S. aureus SA0077; [6]
  MIC: 8 µg/mL
S. aureus SA0077; [7]
  MIC: 8 µg/mL
S. aureus SA0077; [8]
  MIC: 8 µg/mL
S. aureus SA0077
  MIC values: .125 µg/mL
S. aureus SA0085; [9]
  MIC: 0.125 µg/mL
S. aureus SA0085; [39]
  MIC: 8 µg/mL
S. aureus SA0085; [10]
  MIC: 8 µg/mL
S. aureus SA0085; [11]
  MIC: 0.125 µg/mL
S. aureus SA0085; [12]
  MIC: 1 µg/mL
S. aureus SA0085; [13]
  MIC: 2 µg/mL
S. aureus SA0085; [14]
  MIC: 8 µg/mL
S. aureus SA0085
  MIC values: .125 µg/mL
S. aureus SA0422; [15]
  MIC: 0.25 µg/mL
S. aureus SA0422; [16]
  MIC: 1 µg/mL
S. aureus SA0422; [17]
  MIC: 1 µg/mL
S. aureus SA0422; [18]
  MIC: 0.5 µg/mL
S. aureus SA0422; [19]
  MIC: 2 µg/mL
S. aureus SA0422; [20]
  MIC: 4 µg/mL
S. aureus SA0422; [21]
  MIC: 4 µg/mL
S. aureus RN4220; Table S1: RN4220 WT
  MIC values: 0.25 µg/mL
S. aureus RN4220; [22]
  MIC values: 0.25 µg/mL
S. aureus ATCC 29213; [23]
  MIC: 0.5 µg/mL
S. aureus ATCC 29213; [24]
  MIC: 2 µg/mL
S. aureus ATCC 29213; [25]
  MIC: 4 µg/mL
S. aureus ATCC 29213; [26]
  MIC: 0.06 µg/mL
S. aureus ATCC 29213; [27]
  MIC: 0.06 µg/mL
S. aureus ATCC 29213; [28]
  MIC: 2 µg/mL
S. aureus ATCC 29213; [29]
  MIC: 8 µg/mL
S. aureus SA0736; [30]
  MIC: 0.25 µg/mL
S. aureus SA0736; [31]
  MIC: 8 µg/mL
S. aureus SA0736; SA0736, selecting agent DAP, passage 40W (white colonies)
  MIC: 8 µg/mL
S. aureus SA0736; [32]
  MIC: 8 µg/mL
S. aureus SA0736; [33]
  MIC: 0.25 µg/mL
S. aureus SA0736; [34]
  MIC: 4 µg/mL
S. aureus SA0736; [36]
  MIC: 8 µg/mL
S. aureus SA0736; [37]
  MIC values: 8 µg/mL
S. aureus SA0736; [38]
  MIC values: 8 µg/mL

From article PMC10215302 (Antibiotics, 2023)
